We go through ten molecules from patent US9550796B2, “Pyrrolopyrrolone derivatives and their use as BET inhibitors” (NOVARTIS AG, priority 2013, dated 2017).

The test system of one assay is K-562. Nature of the assay: Cell growth inhibition assay (CellTiter-Glo), K-562. The conditions noted are these: K-562 cells, 4 days; for GI50: Homo sapiens, K562, 96 h, half-maximal growth inhibition; for K-562 TGI: total growth inhibition. The format is cell-based, human. The procedure, abridged: (§1)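 Cells were exposed 4 days at 37 °C, 5% CO2 to 3-fold serial dilutions starting at 10 μM (0.1% DMSO vehicle). Viability was measured as ATP by CellTiter-Glo luminescence, corrected for background and a day-0 plate. IC50 and TGI were derived by four-parameter fitting.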
A general note: ATP-based viability assays read luminescence as a measure of living cells.

The target of another assay is BRD3 (Homo sapiens (Human), UniProt Q15059). Nature of the assay: TR-FRET in-vitro binding assay for BRD3. The conditions noted are these: 45 nM His-Brd3(20-477), acetyl-histone H4 (AcK 5, 8, 12, 16) peptide. In a few lines: (§2)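 Incubation at 30° C lasted 35 min, followed by TR-FRET measurement; each compound was tested as 8 single-point concentrations.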
BRD3, sequence (Q15059 20-477): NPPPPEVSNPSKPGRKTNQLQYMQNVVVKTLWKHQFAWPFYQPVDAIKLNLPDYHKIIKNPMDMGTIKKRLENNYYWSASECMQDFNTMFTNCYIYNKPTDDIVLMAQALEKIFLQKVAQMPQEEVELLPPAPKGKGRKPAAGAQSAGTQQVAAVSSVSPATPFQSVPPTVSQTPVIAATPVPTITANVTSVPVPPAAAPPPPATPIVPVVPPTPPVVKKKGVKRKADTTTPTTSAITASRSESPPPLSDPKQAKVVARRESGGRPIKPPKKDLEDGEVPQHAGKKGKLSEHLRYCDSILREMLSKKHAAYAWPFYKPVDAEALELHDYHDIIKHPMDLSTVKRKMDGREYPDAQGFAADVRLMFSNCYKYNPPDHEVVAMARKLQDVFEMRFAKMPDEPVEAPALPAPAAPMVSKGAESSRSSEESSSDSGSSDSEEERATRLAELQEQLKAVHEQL
(Time-resolved FRET reads energy transfer from a long-lived donor to a nearby acceptor.)

In the next assay the target is CREBBP (Homo sapiens (Human), UniProt Q92793). Nature of the assay: AlphaScreen in-vitro binding assay for CREBBP. As to conditions: 324 nM His-CREBBP (1081-1197), acetyl-histone H4 (AcK 5, 8, 12) peptide. The procedure, abridged: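 IC50 values were derived by non-linear regression of percent inhibition across 8 compound concentrations. Protein was His-tagged CREBBP bromodomain (1081-1197), peptide acetyl-histone H4 (AcK 5, 8, 12), in HEPES pH 7.5 buffer. Read-out was AlphaScreen with Ni-chelate acceptor and streptavidin donor beads, 35 min at 30° C then 60 min at RT.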
CREBBP, sequence (Q92793 1081-1197): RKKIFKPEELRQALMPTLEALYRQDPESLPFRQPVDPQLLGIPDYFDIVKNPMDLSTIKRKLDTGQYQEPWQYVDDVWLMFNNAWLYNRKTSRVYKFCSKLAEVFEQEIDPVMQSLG
(In general: Bead proximity is the source of the signal in Alpha formats.)

Another assay relates to THP-1. Nature of the assay: Cell growth inhibition assay (CellTiter-Glo), THP-1. In kind it is cell-based, human. The conditions noted are these: THP-1 cells, 4 days; for GI50: Homo sapiens, 96 h, half-maximal growth inhibition; for THP-1 TGI: total growth inhibition. The procedure, abridged:
as §1

For the next assay, the system named is MV-4-11. Nature of the assay: Cell growth inhibition assay (CellTiter-Glo), MV-4-11. The format is cell-based, human. The conditions noted are these: MV-4-11 cells, 4 days; for GI50: Homo sapiens, MV4-11, 96 h, half-maximal growth inhibition; for MV-4-11 TGI: total growth inhibition. In a few lines:
as §1

The target in another assay is BRD4 (Homo sapiens (Human), UniProt O60885). Briefly: TR-FRET in-vitro binding assay for BRD4. The conditions noted are these: 45 nM His-Brd4(44-477), acetyl-histone H4 (AcK 5, 8, 12, 16) peptide. In a few lines: as §2

Take `CNC(=O)Cn1cc(C)c2c1C(c1ccc(Cl)cc1)N(c1cc(C)c3nnc(C)n3c1)C2=O` (stereo not drawn) [Example 127, 2-(6-(4-chlorophenyl)-5-(3,8-dimethyl-[1,2,4]triazolo[4,3-a]pyridin-6-yl)-3-methyl-4-oxo-5,6-dihydropyrrolo[3,4-b]pyrrol-1(4H)-yl)-N-methylacetamide]: the results for the GI50 in the assay with K-562, with THP-1 and in the assay on MV-4-11 were 2.32 µM, 0.824 µM and 0.413 µM, respectively. In the assay with K-562, the “K-562 TGI” value was over 10 µM. For the same molecule, the IC50 (as a rule, the point on the concentration scale where inhibition reaches its midpoint) at BRD3 was found to be 0.081 µM; at CREBBP, 7.5 µM; at BRD4, 0.085 µM. The “THP-1 TGI” value in the assay with THP-1 worked out at 1.129 µM. For the same molecule, in the assay on MV-4-11, the “MV-4-11 TGI” value was 0.64 µM.
For `COc1ncccc1-c1c(C2CC2)c2c(n1C)C(c1ccc(Cl)cc1)N(c1cc(C)c3nnc(C)n3c1)C2=O` (stereo not drawn) [Example 120, 6-(4-chlorophenyl)-3-cyclopropyl-5-(3,8-dimethyl-[1,2,4]triazolo[4,3-a]pyridin-6-yl)-2-(2-methoxypyridin-3-yl)-1-methyl-5,6-dihydropyrrolo[3,4-b]pyrrol-4(1H)-one], the GI50 (commonly the concentration at which growth is held to half of that of the control) in the assay with K-562 was found to be 0.0254 µM; in the assay with THP-1 it was 0.00367 µM; in the assay with MV-4-11, 0.00302 µM. In addition, the “K-562 TGI” value in the assay on K-562 was over 7 µM. Moreover, the values for the IC50 at BRD3, on CREBBP and at BRD4 were under 0.011 µM, 1.6 µM and under 0.011 µM, respectively. Besides, in the assay with THP-1, the “THP-1 TGI” value amounted to 0.005503 µM. In addition, the “MV-4-11 TGI” value in the assay on MV-4-11 was 0.005053 µM.
Regarding `Cc1cc(N2C(=O)c3cc(C4=CCOCC4)n(C)c3C2c2ccc(Cl)cc2)cn2c(C)nnc12` (stereo in doubt) [Example 137, (R)-6-(4-chlorophenyl)-2-(3,6-dihydro-2H-pyran-4-yl)-5-(3,8-dimethyl-[1,2,4]triazolo[4,3-a]pyridin-6-yl)-1-methyl-5,6-dihydropyrrolo[3,4-b]pyrrol-4(1H)-one], the GI50 in the assay with K-562 is 0.0311 µM; with THP-1, 0.0111 µM; in the assay with MV-4-11, 0.01 µM. The “K-562 TGI” value in the assay on K-562 was over 10 µM. Moreover, the 50% inhibitory concentration (IC50) was 0.013 µM at BRD3, 0.59 µM at CREBBP and under 0.011 µM at BRD4. In addition, the “THP-1 TGI” value in the assay on THP-1 came to 0.02275 µM. Also, in the assay with MV-4-11, the “MV-4-11 TGI” value amounted to 0.01875 µM.
For `Cc1cc(N2C(=O)c3c(C4CC4)c(C4=CCOCC4)n(C)c3C2c2ccc(Cl)cc2)cn2c(C)nnc12` (stereo not drawn) [Example 119, 6-(4-chlorophenyl)-3-cyclopropyl-2-(3,6-dihydro-2H-pyran-4-yl)-5-(3,8-dimethyl-[1,2,4]triazolo[4,3-a]pyridin-6-yl)-1-methyl-5,6-dihydropyrrolo[3,4-b]pyrrol-4(1H)-one], the GI50 with K-562 amounted to 0.0117 µM; in the assay with THP-1, 0.00157 µM; in the assay on MV-4-11, 0.00124 µM. In addition, the “K-562 TGI” value in the assay with K-562 was 3.74 µM. The IC50 is under 0.011 µM at BRD3, 1.7 µM at CREBBP and under 0.011 µM on BRD4. Further, in the assay on THP-1, the “THP-1 TGI” value was 0.003665 µM. The “MV-4-11 TGI” value in the assay on MV-4-11 amounted to 0.00376 µM.
On to `CC(=O)N1CC(c2cn(C)c3c2C(=O)N(c2cc(C)c4nnc(C)n4c2)C3c2ccc(Cl)cc2)C1` (stereo not drawn) [Example 117, 3-(1-acetylazetidin-3-yl)-6-(4-chlorophenyl)-5-(3,8-dimethyl-[1,2,4]triazolo[4,3-a]pyridin-6-yl)-1-methyl-5,6-dihydropyrrolo[3,4-b]pyrrol-4(1H)-one], for which the concentration for 50% growth inhibition (GI50) with K-562 came out at 1.49 µM; with THP-1 it was 0.184 µM; in the assay on MV-4-11, 0.124 µM. The “K-562 TGI” value in the assay with K-562 is over 10 µM. For the same molecule, the IC50 turned out to be 0.017 µM at BRD3, 13.7 µM at CREBBP and 0.014 µM at BRD4. The “THP-1 TGI” value in the assay with THP-1 turned out to be 0.354 µM. Also, the “MV-4-11 TGI” value in the assay with MV-4-11 stood at 0.2175 µM.
For the molecule `CCOC(=O)n1c(-c2cccnc2OC)c(C)c2c1C(c1ccc(Cl)cc1)N(c1cc(C)c3nnc(C)n3c1)C2=O` (stereo not drawn) [Example 124, Ethyl 6-(4-chlorophenyl)-5-(3,8-dimethyl-[1,2,4]triazolo[4,3-a]pyridin-6-yl)-2-(2-methoxypyridin-3-yl)-3-methyl-4-oxo-5,6-dihydropyrrolo[3,4-b]pyrrole-1(4H)-carboxylate], the GI50 in the assay on K-562 came out at 0.0416 µM; in the assay on THP-1, 0.00756 µM; with MV-4-11, 0.00658 µM. Further, the “K-562 TGI” value in the assay on K-562 is over 10 µM. Further, the IC50 on BRD3 was found to be 0.014 µM; on CREBBP, 1.5 µM; at BRD4, 0.011 µM. Further, in the assay with THP-1, the “THP-1 TGI” value turned out to be 0.0158 µM. Also, the “MV-4-11 TGI” value in the assay with MV-4-11 was determined as 0.0132 µM.
In the case of `Cc1cc(N2C(=O)c3c(NC(=O)CN(C)C)cn(C)c3C2c2ccc(Cl)cc2)cn2c(C)nnc12` (stereo not drawn) [Example 116, N-(6-(4-chlorophenyl)-5-(3,8-dimethyl-[1,2,4]triazolo[4,3-a]pyridin-6-yl)-1-methyl-4-oxo-1,4,5,6-tetrahydropyrrolo[3,4-b]pyrrol-3-yl)-2-(dimethylamino)acetamide], the GI50 with K-562 is 0.288 µM; in the assay on THP-1, 0.0595 µM; in the assay with MV-4-11, 0.0377 µM. In addition, the “K-562 TGI” value in the assay with K-562 was over 10 µM. Also, the values for the IC50 on BRD3, at CREBBP and at BRD4 were 0.034 µM, 4.2 µM and 0.026 µM, respectively. The “THP-1 TGI” value in the assay with THP-1 stood at 0.123 µM. Further, the “MV-4-11 TGI” value in the assay with MV-4-11 was found to be 0.08745 µM.
For the molecule `Cc1cn(CCN(C)C)c2c1C(=O)N(c1cc(C)c3nnc(C)n3c1)C2c1ccc(Cl)cc1` (stereo not drawn) [Example 128, 6-(4-chlorophenyl)-5-(3,8-dimethyl-[1,2,4]triazolo[4,3-a]pyridin-6-yl)-1-(2-(dimethylamino)ethyl)-3-methyl-5,6-dihydropyrrolo[3,4-b]pyrrol-4(1H)-one], the GI50 is 0.203 µM in the assay with K-562, 0.0377 µM in the assay on THP-1 and 0.0395 µM with MV-4-11. The “K-562 TGI” value in the assay on K-562 is over 10 µM. For the same molecule, the IC50 at BRD3 amounted to 0.046 µM; on CREBBP, 27.6 µM; at BRD4 it was 0.045 µM. The “THP-1 TGI” value in the assay with THP-1 came to 0.1051 µM. In addition, the “MV-4-11 TGI” value in the assay with MV-4-11 stood at 0.0629 µM.
For `CNC(=O)Nc1cn(C)c2c1C(=O)N(c1cc(C)c3nnn(C)c3c1)C2c1ccc(Cl)cc1` (stereo not drawn) [Example 114, 1-(6-(4-chlorophenyl)-5-(1,4-dimethyl-1H-benzo[d][1,2,3]triazol-6-yl)-1-methyl-4-oxo-1,4,5,6-tetrahydropyrrolo[3,4-b]pyrrol-3-yl)-3-methylurea], the GI50 in the assay on K-562 was found to be 0.499 µM; in the assay on THP-1, 0.0271 µM; with MV-4-11, 0.0267 µM. Further, the “K-562 TGI” value with K-562 was over 10 µM. The IC50 at BRD3 came out at 0.038 µM; at CREBBP it was 1.3 µM; on BRD4, 0.034 µM. Further, the “THP-1 TGI” value in the assay on THP-1 amounted to 0.1052 µM. The “MV-4-11 TGI” value in the assay with MV-4-11 was 0.066 µM.
For the molecule `Cc1cc(N2C(=O)c3c(NC(=O)CCN(C)C)cn(C)c3C2c2ccc(Cl)cc2)cc2c1nnn2C` (stereo not drawn) [Example 115, N-(6-(4-chlorophenyl)-5-(1,4-dimethyl-1H-benzo[d][1,2,3]triazol-6-yl)-1-methyl-4-oxo-1,4,5,6-tetrahydropyrrolo[3,4-b]pyrrol-3-yl)-3-(dimethylamino)propanamide], the figures for the GI50 with K-562, with THP-1 and with MV-4-11 were 0.157 µM, 0.0293 µM and 0.0161 µM, respectively. Besides, the “K-562 TGI” value in the assay with K-562 was over 10 µM. Moreover, the results for the IC50 on BRD3, at CREBBP and on BRD4 were 0.036 µM, 3.9 µM and 0.026 µM, respectively. Besides, the “THP-1 TGI” value in the assay on THP-1 amounted to 0.079 µM. Besides, in the assay with MV-4-11, the “MV-4-11 TGI” value is 0.0257 µM.
